Each structure is given as a SMILES string.

What all share (type): in vitro ADME
One series addresses T1, NQO1 (Homo sapiens, UniProt P15559).
T1 construct: Frozen liver (both rat and human) was thawed; from tissue; host or cells: human liver cytosolic fraction
Description: NQO1 activity in human liver subcellular fraction. Conditions: 100 µM sesquiterpene, control 6.38 ± 0.34. As to the method: (§1) Enzyme activities were assayed in human and rat liver cytosolic and microsomal fractions. The enzyme assays (each performed in 4–8 replicates) were repeated three times (HPLC measurement of CYP activities was repeated only twice, Table 3). Inhibition studies were carried out by incubation of specific substrates in the presence of sesquiterpenes (in the range 0–100 µM).
(§2) The assays of all other enzymes were based on spectrophotometric detection of product formed or detection of decreasing substrate/cofactor levels using microplate reader Tecan Infinite M200 in cytosolic or microsomal fractions. Enzyme activities were determined using slight modifications of previously-published methods: carbonyl reducing enzymes (AKR1A, AKR1C, CBR1 [45], NQO1 [46]), UDP-glucuronosyltransferase (UGT [47]), sulfotransferase (SULT [48]), and cytosolic glutathione-S-transferase (GST [49]).
(§3) Sesquiterpenes CNER, TNER and FAR, non-volatile liquids, were pipetted, and proper concentration was calculated according to density. All compounds were dissolved in DMSO. The final solvent concentration in the inhibition assays was 1%, which had no effect on the enzyme activity (data not shown). Non-enzymatic interference of sesquiterpenes with some compounds in the reaction mixtures (e.g., fluorescence enhancing or quenching) was considered and excluded. All experiments were performed in three replicates, if not stated otherwise.
(§4) CNER, TNER and FAR at a fixed concentration of 100 µM were screened for inhibition of cytosolic AKR1A1, AKR1C, CBR1, NQO1, SULT, and GST, and microsomal CYPs and UGT. The degree of inhibition caused by sesquiterpenes was compared with non-inhibited control reactions, which contained solvent without sesquiterpenes.

The next series concerns the target T2, CBR1 (Homo sapiens, UniProt P16152).
T2 construct: Frozen liver (both rat and human) was thawed; from tissue; host or cells: human liver cytosolic fraction
T2 sequence (P16152 1-277): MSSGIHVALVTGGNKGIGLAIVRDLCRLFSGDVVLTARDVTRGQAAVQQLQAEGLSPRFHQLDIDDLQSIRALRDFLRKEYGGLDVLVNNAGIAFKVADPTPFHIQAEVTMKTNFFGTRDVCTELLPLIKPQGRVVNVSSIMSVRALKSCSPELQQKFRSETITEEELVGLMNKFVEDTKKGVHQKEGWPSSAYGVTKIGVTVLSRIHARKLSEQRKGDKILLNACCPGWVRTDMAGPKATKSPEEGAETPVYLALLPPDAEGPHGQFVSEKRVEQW
Description: CBR1 activity in human liver subcellular fraction. Conditions: 100 µM sesquiterpene, control 6.62 ± 1.84. As to the method: as §1, §2, §3, §4

The next series has as its target T3, CYP1A2 (Rattus norvegicus, UniProt P04799).
T3 construct: Frozen liver (both rat and human) was thawed; from tissue; host or cells: rat liver microsomal fraction
T3 sequence (P04799 1-513): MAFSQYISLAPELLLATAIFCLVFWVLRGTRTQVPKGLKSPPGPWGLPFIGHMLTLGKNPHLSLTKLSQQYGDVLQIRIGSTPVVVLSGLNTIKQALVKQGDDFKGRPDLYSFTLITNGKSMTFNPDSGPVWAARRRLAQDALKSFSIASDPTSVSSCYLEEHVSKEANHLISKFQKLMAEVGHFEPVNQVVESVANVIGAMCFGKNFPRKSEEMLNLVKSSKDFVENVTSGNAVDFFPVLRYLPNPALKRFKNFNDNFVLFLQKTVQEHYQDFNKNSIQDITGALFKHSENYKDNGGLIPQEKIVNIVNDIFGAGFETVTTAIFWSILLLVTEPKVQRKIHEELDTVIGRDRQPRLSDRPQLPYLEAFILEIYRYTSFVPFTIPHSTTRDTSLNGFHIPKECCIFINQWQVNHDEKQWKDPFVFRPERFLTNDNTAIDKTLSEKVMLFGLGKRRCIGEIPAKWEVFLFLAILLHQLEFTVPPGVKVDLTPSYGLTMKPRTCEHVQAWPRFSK
The series is described as follows: CYP1A2 (EROD activity, 7-ethoxyresorufin O-deethylation) in rat liver microsomes. Conditions: for Specific Activity, CYP1A2 (EROD activity): in the presence of 100 µM sesquiterpene, control 22.8 ± 0.1. As to the method: as §1
Enzyme activities of individual CYP forms were measured according to established protocols. The following microsomal CYP activities were tested: CYP2A6, coumarin 7-hydroxylation; CYP2B6, 7-ethoxy-4-(trifluoromethyl)coumarin 7-deethylation, CYP2C9, diclofenac 4′-hydroxylation, CYP2C19 assay, S-mephenytoin 4′-hydroxylation, CYP2D6 on bufuralol 1′-hydroxylation, CYP2E1, chlorzoxazone 6-hydroxylation and CYP3A4, testosterone 6β-hydroxylation, and midazolam 1′-hydroxylation. Activities were measured using the Prominence HPLC system (Shimadzu, Kyoto, Japan), equipped with a LiChroCART 250-4 LiChrospher 100 RP-18 column or Chromolith®HighResolution RP-18 end-capped column (Merck, Darmstadt, Germany) and UV or fluorescence detection, according to the cited literature. Further incubation details are described either in the corresponding references, as well as in the papers from this laboratory e.g., [42, 43, 44]. CYP1A2, 7-ethoxyresorufin O-deethylation, and CYP3A4/2B6 (human), CYP2B1 (rat), benzyloxyresorufin O-debenzylation were measured using the microplate reader Tecan Infinite M200 (Tecan Group; Mannedorf, Switzerland).
as §3, §4
The concentration of sesquiterpenes required for 50% inhibition of enzyme activity, the IC50 value, was determined. Their final concentrations in the reaction mixture were proposed to cover the entire inhibitory range of these compounds (1–100 µM). The IC50 values for each sesquiterpene were determined by plotting sigmoidal dose response curves of specific enzyme activity vs. logarithm of sesquiterpene concentration using GraphPad Prism version 6.07 for Windows (GraphPad Software Inc., La Jolla, CA, USA).
The kinetic inactivation study of the CYP1A2 (EROD activity) and CYP2B/3A (BROD activity), both in rat and human, with TNER, was performed to find out the mechanism of enzyme inhibition by this sesquiterpene. Mechanism of EROD and BROD inhibition was tested at the final ethoxyresorufin or benzyloxyresorufin concentrations 0.5–5.0 µM. The concentration of TNER was 5.0 µM.
Experimental data were fitted to the Michaelis-Menten equation, basic kinetic parameters were determined using the program GraphPad Prism version 6.07 for Windows. The type of inhibition was estimated using a Lineweaver-Burk (double-reciprocal) plot.
(Microsomes from liver hold many membrane-bound enzymes, among them those of drug oxidation.)

In another series the test system is UGT. The series is described as follows: UGT activity in human liver subcellular fraction. Particulars: 100 µM sesquiterpene, control 7.12 ± 0.35. As to the method:
as §1, §2, §3, §4

For series [1], the system named is GST. The series is described as follows: GST activity in human liver subcellular fraction. Conditions: 100 µM sesquiterpene, control 223 ± 19. As for the experimental part: as §1, §2, §3, §4
In series [2] the test system is GST. Description: GST activity in rat liver subcellular fraction. Particulars: 100 µM sesquiterpene, control 350 ± 8. As for the experimental part: as §1, §2, §3, §4

T1 sequence (P15559 whole entry): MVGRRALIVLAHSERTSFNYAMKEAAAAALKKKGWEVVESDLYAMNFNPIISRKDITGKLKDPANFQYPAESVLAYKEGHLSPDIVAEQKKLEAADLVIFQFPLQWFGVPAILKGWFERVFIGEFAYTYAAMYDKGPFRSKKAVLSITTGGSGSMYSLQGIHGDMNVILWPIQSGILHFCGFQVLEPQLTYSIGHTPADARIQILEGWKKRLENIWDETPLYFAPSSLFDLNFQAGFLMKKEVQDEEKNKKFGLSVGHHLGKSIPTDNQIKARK

The term IC50 denotes the concentration needed to halve the response being measured. The Ki is the dissociation constant of the complex between target and ligand, obtained from inhibition or displacement. In the case of `C=CC(C)(O)CC/C=C(\C)CCC=C(C)C` (stereo not drawn) [TNER, trans-nerolidol], at NQO1, the “Specific activity, NQO1” value is 5.53 ± 0.51 nmol/mg/min. Moreover, the “Specific activity, CBR1” value at CBR1 is on record as 5.67 ± 0.67 nmol/mg/min. On CYP1A2 (rat liver microsomes), the IC50 is 4.38 µM and the “Specific Activity, CYP1A2 (EROD activity)” value (from here on “Specific Activity, CYP1A2”) is reported as 1.53 ± 0.03 pmol/mg/min. On CYP1A2 (rat liver microsomes, EROD activity), the Ki was 4.68 ± 0.66 µM. The “K’M” value on CYP1A2 (rat liver microsomes, ethoxyresorufin 0.5–5.0 µM in the presence of TNER 5 µM, KM without TNER 1.64 ± 0.45) was found to be 1.89 ± 0.49 µM. Besides, the “V’MAX” value on CYP1A2 (rat liver microsomes, ethoxyresorufin 0.5–5.0 µM in the presence of TNER 5 µM, VMAX without TNER 4.32 ± 0.47) is recorded as 2.21 ± 0.24 nM/min. Also, the “type of inhibition, CYP1A2 (EROD)” value at CYP1A2 (rat microsomes, 5 µM TNER, ethoxyresorufin 0.5–5.0 µM) is “non-competitive”. In addition, in the series on UGT, the “Specific activity, UGT” value is given as 7.08 ± 0.39 nmol/mg/min. Further, the “Specific activity, GST” value in the series on GST [1] came to 235 ± 13 nmol/mg/min. Besides, the “Specific activity, GST” value in the series with GST [2] is 354 ± 37 nmol/mg/min.

`CC(C)=CCC/C(C)=C/CC/C(C)=C/CO` [FAR, farnesol]: at NQO1, the “Specific activity, NQO1” value was found to be 5.23 ± 1.03 nmol/mg/min. The “Specific activity, CBR1” value on CBR1 is 6.83 ± 0.70 nmol/mg/min. In addition, at CYP1A2 (rat liver microsomes), the IC50 was determined as 16.1 µM and the “Specific Activity, CYP1A2” value was 1.55 ± 0.02 pmol/mg/min. Moreover, the “Specific activity, UGT” value in the series on UGT worked out at 7.49 ± 1.08 nmol/mg/min. The “Specific activity, GST” value in the series with GST [1] was 181 ± 13 nmol/mg/min. Moreover, the “Specific activity, GST” value in the series with GST [2] was 345 ± 20 nmol/mg/min.

In the case of `C=CC(C)(O)CC/C=C(/C)CCC=C(C)C` (stereo not drawn) [CNER, cis-nerolidol], the “Specific activity, NQO1” value on NQO1 turned out to be 5.44 ± 0.82 nmol/mg/min. Besides, the “Specific activity, CBR1” value on CBR1 is 7.17 ± 0.56 nmol/mg/min. The IC50 at CYP1A2 (rat liver microsomes) was found to be 5.7 µM. The “Specific Activity, CYP1A2” value at CYP1A2 (rat liver microsomes) was 2.16 ± 0.04 pmol/mg/min. Moreover, in the series on UGT, the “Specific activity, UGT” value came out at 7.09 ± 0.34 nmol/mg/min. Moreover, the “Specific activity, GST” value in the series with GST [1] was 209 ± 10 nmol/mg/min; in the series on GST [2] it was 334 ± 22 nmol/mg/min.

(Values after publication PMC6154719 (Molecules : A Journal of Synthetic Chemistry and Natural …, 2017).)
